Results reported in US12065445B2, “CDK2 inhibitors and methods of using the same” (Cedilla Therapeutics, Inc., priority 2021, dated 2024).

Tests used:
Kuramochi cells = assay: BrdU Cell Proliferation Assay; assay type: cell-based; conditions: read-out: BrdU - KURAMOCHI.1: IC50
Procedure, shortened: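 Kuramochi cells were seeded at 2,000 cells/well, adhered overnight, then treated with a 10-point, 3-fold compound dilution series for 4 days. Proliferation was measured by a 1-hour BrdU pulse, anti-BrdU peroxidase colorimetric ELISA and 450 nm absorbance. Values were background-subtracted and normalized to DMSO wells.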

[1] = test system: Kuramochi cells labeled with mApple-H2B; assay: IncuCyte Cell Proliferation Assay; assay type: cell-based; conditions: 72 h
Procedure, shortened: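 Cells imaged at 0 and 72 h after compound treatment (10 points, ½ log dilution, 20 μM top), with fluorescent nuclei counted. Fold change in count was normalized to DMSO wells and fitted to dose-response curves to give GI50.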

SMILES | IC50 (Kuramochi cells) [µM] | IC50 [1] [µM]
CC1(C)C[C@@H]1C(=O)N1CC2(CN(C(=O)c3cnn(Cc4ccccc4)c3)C[C@H]2C(=O)NCc2cccnn2)C1 [I-359] | > 10 | > 20
COC[C@H]1CCCN(C(=O)[C@@H](NC(=O)[C@@H]2CN(C(=O)c3cncs3)CC23CN(C(=O)[C@H]2CC2(C)C)C3)[C@@H](C)OC(C)C2CCC(F)(F)CC2)C1 (stereo partly shown) [I-360] | 0.5 to 5 | 0.5 to 5
CC(O[C@H](C)[C@H](NC(=O)[C@@H]1CN(C(=O)c2cncs2)CC12CN(C(=O)[C@H]1CC1(C)C)C2)C(=O)N1CCC(F)(F)CC1)C1CCC(F)(F)CC1 (stereo partly shown) [I-361] | 0.5 to 5 | 0.5 to 5
CNC(=O)C(NC(=O)[C@@H]1CN(C(=O)c2cncs2)CC12CN(C(=O)[C@H]1CC1(C)C)C2)c1cccc(C2CCCCC2)n1 (stereo partly shown) [I-362] | 0.5 to 5 | 5 to 20
Cc1ccc(CNC(=O)[C@@H]2CN(C(=O)c3cnn(Cc4ccccc4)c3)CC23CN(C(=O)[C@H]2CC2(C)C)C3)cc1 [I-363] | 5 to 10 | 5 to 20
Cc1ccc(CNC(=O)[C@@H]2CN(C(=O)c3cnn(Cc4ccccc4)c3)CC23CN(C(=O)[C@H]2CC2(C)C)C3)cn1 [I-364] | > 10 | 5 to 20
Cc1ccc(CNC(=O)[C@@H]2CN(C(=O)c3cnn(Cc4ccccc4)c3)CC23CN(C(=O)[C@H]2CC2(C)C)C3)nc1 [I-365] | > 10 | > 20
Cc1ccc(C(C)NC(=O)[C@@H]2CN(C(=O)c3cnn(Cc4ccccc4)c3)CC23CN(C(=O)[C@H]2CC2(C)C)C3)nn1 (stereo partly shown) [I-366] | 0.5 to 5 | 0.5 to 5
COC[C@H]1CCCN(C(=O)[C@@H](NC(=O)[C@@H]2CN(C(=O)c3cncs3)CC23CN(C(=O)[C@H]2CC2(C)C)C3)[C@@H](C)O[C@H](C)C2CCCCC2)C1 [I-367] | 0.5 to 5 | 0.5 to 5
CNC(=O)[C@@H](NC(=O)[C@@H]1CN(C(=O)c2cnn(Cc3ccccc3)c2)CC12CN(C(=O)[C@H]1CC1(C)C)C2)[C@@H](C)SCc1ccccc1 [I-368] | > 10 | 5 to 20
COC[C@H]1CCCN(C(=O)[C@@H](NC(=O)[C@@H]2CN(C(=O)c3cncs3)CC23CN(C(=O)[C@H]2CC2(C)C)C3)[C@@H](C)O[C@@H](C)C2CCCCC2)C1 [I-369] | 0.5 to 5 | 0.5 to 5
CNC(=O)[C@@H](NC(=O)[C@@H]1CN(C(=O)c2cncs2)CC12CN(C(=O)[C@H]1CC1(C)C)C2)[C@@H](C)OCC1CCCC2(CC2)C1 (stereo partly shown) [I-370] | ≤ 0.5 | ≤ 0.5
COc1ccc(CNC(=O)[C@@H]2CN(C(=O)c3cnn(Cc4ccccc4)c3)CC23CN(C(=O)[C@H]2CC2(C)C)C3)nn1 [I-371] | > 10 | > 20
CNC(=O)[C@@H](NC(=O)[C@@H]1CN(C(=O)c2cnn(Cc3ccccc3)c2)CC12CN(C(=O)[C@H]1CC1(C)C)C2)[C@@H](C)OCC1CCC(C)(C)CC1 [I-372] | ≤ 0.5 | ≤ 0.5
CNC(=O)[C@@H](NC(=O)[C@@H]1CN(C(=O)Cc2cnn(Cc3ccccc3)c2)CC12CN(C(=O)[C@H]1CC1(C)C)C2)[C@@H](C)OCc1ccccc1 [I-373] | > 10 | > 20
COC[C@H]1CCCN(C(=O)[C@@H](NC(=O)[C@@H]2CN(C(=O)c3cncs3)CC23CN(C(=O)[C@H]2CC2(C)C)C3)[C@@H](C)OC(C)C2CCCCC2)C1 (stereo partly shown) [I-374] | 0.5 to 5 | 0.5 to 5
CNC(=O)[C@@H](NC(=O)[C@@H]1CN(C(=O)c2cncs2)CC12CN(C(=O)[C@H]1CC1(C)C)C2)C1(OCc2ccccc2)CC1 [I-375] | > 10 | > 20
CC1(C)C[C@@H]1C(=O)N1CC2(CN(C(=O)c3cnn(Cc4ccccc4)c3)C[C@H]2C(=O)NCc2ccc(Cl)nn2)C1 [I-376] | > 10 | > 20
CC1(C)C[C@@H]1C(=O)N1CC2(CN(C(=O)c3cnn(Cc4ccccc4)c3)C[C@H]2C(=O)NCc2ccc(C3CCCCC3)nn2)C1 [I-377] | > 10 | > 20
Cc1ccc(CNC(=O)[C@@H]2CN(C(=O)c3cncs3)CC23CN(C(=O)[C@H]2CC2(C)C)C3)nn1 [I-378] | > 10 | > 20
CNC(=O)[C@@H](NC(=O)[C@@H]1CN(C(=O)c2cncs2)CC12CN(C(=O)[C@H]1CC1(C)C)C2)[C@H](O)CC1CCCCC1 [I-379] | > 10 | > 20
C[C@@H](OCC1CCC(F)(F)CC1)[C@H](NC(=O)[C@@H]1CN(C(=O)c2cncs2)CC12CN(C(=O)[C@H]1CC1(C)C)C2)C(=O)N1CCC2(CC1)CC2 [I-380] | ≤ 0.5 | ≤ 0.5
Cc1ccc(CNC(=O)[C@H]2CN(C(=O)c3cnn(Cc4ccccc4)c3)CC23CN(C(=O)[C@H]2CC2(C)C)C3)nn1 [I-381] | > 10 | > 20
CC1(C)C[C@@H]1C(=O)N1CC2(CN(C(=O)c3cnn(Cc4ccccc4)c3)C[C@H]2C(=O)NC[C@H]2CC[C@H](C)CC2)C1 [I-382] | > 10 | > 20

SMILES | IC50 (Kuramochi cells) [µM] | IC50 [1] [µM]
C[C@@H](OCC1CCC(F)(F)CC1)[C@H](NC(=O)[C@@H]1CN(C(=O)c2cncs2)CC12CN(C(=O)[C@H]1CC1(C)C)C2)C(=O)N1CCC(O)CC1 [I-383] | 5 to 10 | 0.5 to 5
CNC(=O)[C@@H](NC(=O)[C@@H]1CN(C(=O)Cc2cnn(C)c2)CC12CN(C(=O)[C@H]1CC1(C)C)C2)[C@@H](C)OCc1ccccc1 [I-384] | > 10 | > 20
COC1CCN(C(=O)[C@@H](NC(=O)[C@@H]2CN(C(=O)c3cncs3)CC23CN(C(=O)[C@H]2CC2(C)C)C3)[C@@H](C)OCC2CCC(F)(F)CC2)CC1 [I-385] | ≤ 0.5 | ≤ 0.5
C[C@@H](OCC1CCC(F)(F)CC1)[C@H](NC(=O)[C@@H]1CN(C(=O)c2cncs2)CC12CN(C(=O)[C@H]1CC1(C)C)C2)C(=O)N1CCC(C)(C)CC1 [I-386] | ≤ 0.5 | ≤ 0.5
C[C@@H](OCC1CCC(F)(F)CC1)[C@H](NC(=O)[C@@H]1CN(C(=O)c2cncs2)CC12CN(C(=O)[C@H]1CC1(C)C)C2)C(=O)N1CCC(C(F)(F)F)CC1 [I-398] | ≤ 0.5 | ≤ 0.5
COC[C@H]1CCCN(C(=O)[C@@H](NC(=O)[C@@H]2CN(C(=O)c3cncs3)CC23CN(C(=O)C(C)(C)C2CC2)C3)[C@@H](C)OC(C)C2CCC(F)(F)CC2)C1 (stereo partly shown) [I-399] | 0.5 to 5 | 0.5 to 5
CC1(C)C[C@@H]1C(=O)N1CC2(CN(C(=O)c3cnn(Cc4ccccc4)c3)C[C@H]2C(=O)NCc2ccc(O)nn2)C1 [I-400] | > 10 | > 20
CNC(=O)[C@@H](NC(=O)[C@@H]1CN(C(=O)c2cncs2)CC12CN(C(=O)[C@H]1CC1(C)C)C2)C1(OCC2CCCCC2)CC1 [I-401] | 0.5 to 5 | 0.5 to 5
COC[C@H]1CCCN(C(=O)[C@@H](NC(=O)[C@@H]2CN(C(=O)c3cncs3)CC23CN(C(=O)[C@H]2CC2(C)C)C3)[C@@H](C)OC[C@H]2CC[C@H](OC)CC2)C1 [I-402] | 0.5 to 5 | 0.5 to 5
CNC(=O)[C@@H](NC(=O)[C@@H]1CN(C(=O)c2cnn(Cc3ccccc3)c2)CC12CN(C(=O)[C@H]1CC1(C)C)C2)[C@@H](C)OC[C@H]1CC[C@H](OC)CC1 [I-403] | > 10 | > 20
C[C@@H](OCC1CCCCC1)[C@H](NC(=O)[C@@H]1CN(C(=O)c2cncs2)CC12CN(C(=O)[C@H]1CC1(C)C)C2)C(=O)N1CCC(c2cnc[nH]2)CC1 [I-406] | 0.5 to 5 | 0.5 to 5
CNC(=O)C(NC(=O)[C@@H]1CN(C(=O)c2cncs2)CC12CN(C(=O)[C@H]1CC1(C)C)C2)c1cccc(N2CCOCC2)n1 (stereo partly shown) [I-422] | > 10 | > 20
CNC(=O)[C@@H](NC(=O)[C@@H]1CN(C(=O)c2cnn(Cc3ccccc3)c2)CC12CN(C(=O)[C@H]1CC1(C)C)C2)[C@@H](C)OC[C@H]1CC[C@@H](O)CC1 [I-424] | > 10 | > 20
CNC(=O)C(NC(=O)[C@@H]1CN(C(=O)c2cncs2)CC12CN(C(=O)[C@H]1CC1(C)C)C2)c1nc(C2CCCCC2)co1 (stereo partly shown) [I-425] | > 10 | > 20
CNC(=O)C(NC(=O)[C@@H]1CN(C(=O)c2cncs2)CC12CN(C(=O)[C@H]1CC1(C)C)C2)c1ncc(C2CCCCC2)o1 (stereo partly shown) [I-426] | > 10 | > 20
CNC(=O)C(NC(=O)[C@@H]1CN(C(=O)c2cncs2)CC12CN(C(=O)[C@H]1CC1(C)C)C2)c1cccc(N2CC3(COC3)C2)n1 (stereo partly shown) [I-427] | > 10 | > 20
C[C@@H](OCC1CCOCC1)[C@@H](COC(F)(F)F)NC(=O)[C@@H]1CN(C(=O)c2cncs2)CC12CN(C(=O)[C@H]1CC1(C)C)C2 [I-428] | > 10 | > 20
CNC(=O)C(NC(=O)[C@@H]1CN(C(=O)c2cncs2)CC12CN(C(=O)[C@H]1CC1(C)C)C2)c1cccc(N2CC3(CC(C(F)(F)F)C3)C2)n1 (stereo partly shown) [I-430] | > 10 | > 20
CNC(=O)C(NC(=O)[C@@H]1CN(C(=O)c2cncs2)CC12CN(C(=O)[C@H]1CC1(C)C)C2)c1cccc(N2CCCCC2)n1 (stereo partly shown) [I-432] | > 10 | > 20
CNC(=O)[C@@H](NC(=O)[C@@H]1CN(C(=O)c2cncs2)CC12CN(C(=O)[C@H]1CC1(C)C)C2)[C@@H](C)OCC1CC2CCC1O2 (stereo partly shown) [I-462] | > 10 | > 20
CNC(=O)[C@@H](NC(=O)[C@@H]1CN(C(=O)c2cncs2)CC12CN(C(=O)[C@H]1CC1(C)C)C2)[C@@H](C)OC1C2CC3CC(C2)CC1C3 (stereo partly shown) [I-463] | 0.5 to 5 | 0.5 to 5
CNC(=O)[C@@H](NC(=O)[C@@H]1CN(C(=O)c2cncs2)CC12CN(C(=O)[C@H]1CC1(C)C)C2)[C@@H](C)OC1CC2CCC1CC2 (stereo partly shown) [I-464] | 0.5 to 5 | 0.5 to 5
CNC(=O)[C@@H](NC(=O)[C@@H]1CN(C(=O)c2cncs2)CC12CN(C(=O)[C@H]1CC1(C)C)C2)[C@@H](C)OCC1CC2CCC1C2 (stereo partly shown) [I-465] | 0.5 to 5 | ≤ 0.5
